Assay results published in US20250152580A1, “METHODS FOR TREATING IMMUNE DISEASES” (Ascentage Pharma (Suzhou) co., Ltd., priority 2022, published 2025).
Entries after “also recorded” stand apart in the source; their conditions may differ.

Tested on: DSS induced IBD (colitis) model
Assay: DSS induced inflammatory bowel disease (IBD) model in C57BL/6 mice
Assay type: in vivo
Details: for pathological score (colon): day 8, vehicle 10.10±0.17
From the text: Female C57BL/6 mice (8 weeks old) were obtained from Beijing Vital River Laboratory Animal Co. Ltd. Animals were housed and handled in a temperature-controlled environment with a 12-h light/12-h dark cycle. A total of 50 mice were assigned to 5 groups by randomization based on body weight.
On Day 0, colitis was induced by administration of 3% DSS (dextran sodium sulfate, molecular weight 36,000-50,000) in drinking water ad libitum for 8 days. 8-week-old mice were divided into 5 groups: Group 2, DSS treatment group (vehicle, po, qd, from day 0 to day 7); Group 3, DSS with 30 mg/kg Cpd. 4 (po, qd, from day 0 to day 7); Group 4, DSS with 100 mg/kg Cpd. 4 (po, qd, from day 0 to day 7); and Group 5, DSS with 50 mg/kg Cyclosporine (po, qd, from day 0 to day 7). For the Group 1 (G1) Sham group, the mice were provided drinking water without DSS.
Clinical signs of IBD were assessed every day based on the scores of disease activity index (DAI) which was evaluated from three parameters using a scoring system from 0 to 4: stool consistency (0, normal stool; 1, soft but still formed stool; 2, soft and not formed stool; 3, very soft and wet stool; 4, watery diarrhea), bleeding score (0, negative hemoccult; 1, weak positive hemoccult; 2, positive hemoccult; 3, blood trace in stool visible; 4, gross rectal bleeding) and body weight loss (0, no body weight loos; 1, 1-5% body weight loss; 2, 6-10% body weight loss; 3, 11-20% body weight loss; 4, >20% body weight loss).
At the end of induction with DSS, the animals were euthanized, dissected and the entire colon was quickly removed and gently cleared of feces.
The entire colon was weighed, and the total length was measured. Colon weight gain and shortening is an indirect marker of inflammation. As expected, DSS increased colon weight to 243.8±10.73 mg. Cpd. […] 4 treatment (FIG. 11).
The colon of a mouse was Swiss-rolled and fixed with neutralized PFA followed by H&E staining. After that, the pathologists from WuXi clinical pathological analysis platform, who were blinded to animal ID, reviewed the H&E staining and scored. The pathological scoring standards were as follows: crypt architecture (normal, 0; severe crypt distortion with loss of entire crypts, 3), degree of inflammatory cell infiltration (normal, 0; dense inflammatory infiltrate, 3), muscle thickening (normal, 0; marked muscle thickening present, 3), goblet cell depletion (absent, 0; present, 1) and crypt abscess (absent, 0; present, 1).
At the end of the study (day 8), all the animals were sacrificed by CO2, and the colon tissues were collected and fixed in 10% formalin for pathological analysis (H&E and LFB staining). The histopathological score was evaluated microscopically in a blinded manner.

[1] = Cpd. 4 30 and 100 mg/kg po qd, compared with Vehicle

O=C(NS(=O)(=O)c1ccc(NC[C@H]2COCCO2)c([N+](=O)[O-])c1)c1ccc(N2CCN(CC3=C(c4ccc(Cl)cc4)CC4(CCC4)CC3)CC2)cc1Oc1cnc2[nH]ccc2c1 [Cpd. 4, (S)-N-((4-(((1,4-dioxan-2-yl)methyl)amino)-3-nitrophenyl)sulfonyl)-2-((1H-pyrrolo[2,3-b]pyridin-5-yl)oxy)-4-(4-((6-(4-chlorophenyl)spiro[3.5]non-6-en-7-yl)methyl)piperazin-1-yl)benzamide]
colon length (30 mg/kg po qd day 0 to day 7, vehicle 4.81±0.08 cm): 5.25±0.11 cm | colon weight (30 mg/kg po qd day 0 to day 7, vehicle 243.8±10.73 mg): 188.4 ± 10.48 mg | pathological score (colon) (30 mg/kg po qd): 6.70±0.25 | pathological score (colon) (100 mg/kg po qd): 3.70±0.25 | disease activity index (DAI), clinical score of IBD (Cpd. 4 30 and 100 mg/kg po qd day 0 to day 7, cyclosporine 50 mg/kg po qd, compared with Vehicle): significantly reducing the clinical score; also recorded: significantly reduced | colon length (in words) [1]: significantly increased | colon weight (in words) [1]: significantly decreased | pathological score (in words) (Cpd. 4, compared with Vehicle): significantly decreased
